Assay results as given in PubChem BioAssay (NCI).
Several values for one entry are separate records, joined by “and”; a condition that tells them apart may be missing. Equal entries are not always repeated.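 Briefly, cells in 96-well plates were exposed to five compound concentrations for 48 h, and endpoints were estimated by linear interpolation. GI50 is the concentration that inhibits growth by half. TGI: total growth inhibition.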

Tests used:
Assay in all cases: NCI anticancer screen, dose series, 48 h
ACHN renal = tested on: ACHN renal
HCT-15 colon = tested on: HCT-15 colon
HL-60(TB) leukemia = tested on: HL-60(TB) leukemia
M14 melanoma = tested on: M14 melanoma
MDA-MB-435 = tested on: MDA-MB-435
NCI-H522 lung = tested on: NCI-H522 lung
OVCAR-8 ovarian = tested on: OVCAR-8 ovarian
PC-3 prostate = tested on: PC-3 prostate
SK-MEL-2 melanoma = tested on: SK-MEL-2 melanoma
UACC-62 melanoma = tested on: UACC-62 melanoma

Row | SMILES | GI50 (ACHN renal) [nM] | TGI (ACHN renal) [µM] | GI50 (HCT-15 colon) | TGI (HCT-15 colon) | GI50 (HL-60(TB) leukemia) | GI50 (M14 melanoma) | GI50 (MDA-MB-435) | TGI (MDA-MB-435) | GI50 (NCI-H522 lung) [nM] | TGI (NCI-H522 lung) [µM] | GI50 (OVCAR-8 ovarian) | TGI (OVCAR-8 ovarian) | GI50 (PC-3 prostate) [nM] | TGI (PC-3 prostate) [µM] | GI50 (SK-MEL-2 melanoma) | TGI (SK-MEL-2 melanoma) | GI50 (UACC-62 melanoma) | TGI (UACC-62 melanoma) | TGI (HL-60(TB) leukemia) [µM] | TGI (M14 melanoma) [µM]
1 | COc1ccc2c(c1)nnn1c3ncccc3c(N=O)c21 | 374 | > 100 | 3130 nM and 2310 nM | 50 µM and 11.8 µM | 43.3 nM and 359 nM | 1570 nM and 3440 nM | 1940 nM and 2050 nM | 9.7 µM and 12.4 µM | 1250 | 6.49 | 389 nM and 517 nM | 21.4 µM and 3.73 µM | 2050 | 92.7 | 2180 nM and 4290 nM | 10.3 µM and > 100 µM | 853 nM and 2560 nM | 7.81 µM and 13.9 µM | – | –
2 | CC1(N)CCN(c2cccnc2NC(=O)c2nc(-c3ncccc3C(F)(F)F)cnc2N)CC1 | 19200 | > 100 | 25100 nM | > 100 µM | 12400 nM | 25900 nM | 41600 nM | > 100 µM | 15100 | 47.9 | 40200 nM | > 100 µM | 30900 | > 100 | 50900 nM | > 100 µM | 61200 nM | > 100 µM | 37.8 | 80.3
3 | O=C(Nc1cccc(-n2cc(-c3ccncc3)c(-c3ccc(Cl)c(O)c3)n2)c1)c1ccc(N2CCOCC2)c(C(F)(F)F)c1 | 1920 | > 50 | 1810 nM | 25.3 µM | 3810 nM | 1630 nM | 2040 nM | > 50 µM | 2310 | 44 | 3160 nM | > 50 µM | 2150 | > 50 | 2890 nM | 15.3 µM | 3260 nM | 18.4 µM | > 50 | 9.1
4 | CCCCC[C@H]1C/C=C2/C(=O)C=C[C@@H]2C/C=C\CCCC(=O)O[C@@H](CCCCC)C/C=C2/C(=O)C=C[C@@H]2C/C=C\CCCC(=O)O1 | 373 | 0.755 | 428 nM | 1.01 µM | 136 nM | 273 nM | 95.9 nM | 0.412 µM | 160 | 0.655 | 112 nM | 2.7 µM | 285 | 0.806 | 385 nM | 1.22 µM | 253 nM | 0.783 µM | 0.704 | 1.01
5 | COC1=CC(c2ccc[nH]2)=N/C1=C\c1[nH]c(C)c(C(=O)CCCCC(=O)NC(C)(C)C)c1C | 1700 | 3.7 | 683 nM | 2.06 µM | 1910 nM | 1620 nM | 1750 nM | 3.47 µM | 2090 | 6.73 | 2250 nM | 5.45 µM | 1210 | 2.57 | 17700 nM | 42.5 µM | 3590 nM | 10.8 µM | 4.06 | 3.1
6 | CC1OC(OC2C[C@](O)(C(=O)CF)Cc3c(O)c4c(c(O)c32)C(=O)c2ccccc2C4=O)CC(N)C1O (stereo partly drawn) | – | 0.0777 | – | 0.514 µM | – | – | – | 0.321 µM | – | 0.104 | – | 0.231 µM | – | 0.354 | – | 0.512 µM | – | 0.117 µM | < 0.0291 | 0.368
7 | CNCCCn1c2c(c3ccc([N+](=O)[O-])cc3c1=O)C(=O)c1cc(OC)cnc1-2 | 36.1 | 0.149 | 119 nM | 0.714 µM | 41.3 nM | 39.4 nM | 150 nM | 1.17 µM | 83.8 | 0.464 | 86.1 nM | 1.81 µM | 130 | 1.88 | 348 nM | 0.994 µM | 20 nM | 0.122 µM | 0.921 | 0.358
8 | COC(=O)c1ccccc1OCc1cc(=O)oc2ccc(C)cc12 | – | > 100 | – | > 100 µM | – | – | – | > 100 µM | – | 48.6 | – | > 100 µM | – | > 100 | – | > 85.4 µM | – | > 66.6 µM | > 100 | > 100
9 | COc1ccc(C2CC(C)(O)Oc3cc4c(cc32)OCO4)cc1 (stereo not drawn) | – | > 100 | – | > 100 µM | – | – | – | 42.9 µM | – | 44.6 | – | > 100 µM | – | > 81.1 | – | 75.2 µM | – | > 100 µM | 68.4 | > 87.8
10 | O=C(Nc1cccc(-n2cc(-c3ccncc3)c(-c3cc(O)cc(Cl)c3)n2)c1)Nc1ccc(Cl)c(C(F)(F)F)c1 | 3100 | 15.3 | 2210 nM | 6.01 µM | 2860 nM | 1720 nM | 1780 nM | 3.89 µM | 1320 | 4.48 | 2150 nM | 5.55 µM | 2100 | 6.43 | 2200 nM | 4.55 µM | 2080 nM | 4.38 µM | 6.62 | 3.85
11 | O=C(O)c1cc2ccc3ccccc3c2oc1=O | – | > 100 | – | > 100 µM | – | – | – | > 100 µM | – | > 100 | – | > 100 µM | – | > 100 | – | > 100 µM | – | > 100 µM | > 100 | > 100
